# Data taken from BindingDB's records for doi:10.1021/jm051074u (Cephalon, 2007).
# Biological target: Mitogen-activated protein kinase kinase kinase 10 (Homo sapiens, UniProt Q02779)
# Test: Mixed-Lineage Kinase Assays
# Procedure: The MLK1, MLK2, and MLK3 assays were performed using the Millipore multiscreen trichloroacetic acid (TCA) in-plate format. IC50 values were calculated by nonlinear regression using the sigmoidal dose-response (variable slope) equation in GraphPad Prism.
# Mitogen-activated protein kinase kinase kinase 10, sequence (Q02779 whole entry): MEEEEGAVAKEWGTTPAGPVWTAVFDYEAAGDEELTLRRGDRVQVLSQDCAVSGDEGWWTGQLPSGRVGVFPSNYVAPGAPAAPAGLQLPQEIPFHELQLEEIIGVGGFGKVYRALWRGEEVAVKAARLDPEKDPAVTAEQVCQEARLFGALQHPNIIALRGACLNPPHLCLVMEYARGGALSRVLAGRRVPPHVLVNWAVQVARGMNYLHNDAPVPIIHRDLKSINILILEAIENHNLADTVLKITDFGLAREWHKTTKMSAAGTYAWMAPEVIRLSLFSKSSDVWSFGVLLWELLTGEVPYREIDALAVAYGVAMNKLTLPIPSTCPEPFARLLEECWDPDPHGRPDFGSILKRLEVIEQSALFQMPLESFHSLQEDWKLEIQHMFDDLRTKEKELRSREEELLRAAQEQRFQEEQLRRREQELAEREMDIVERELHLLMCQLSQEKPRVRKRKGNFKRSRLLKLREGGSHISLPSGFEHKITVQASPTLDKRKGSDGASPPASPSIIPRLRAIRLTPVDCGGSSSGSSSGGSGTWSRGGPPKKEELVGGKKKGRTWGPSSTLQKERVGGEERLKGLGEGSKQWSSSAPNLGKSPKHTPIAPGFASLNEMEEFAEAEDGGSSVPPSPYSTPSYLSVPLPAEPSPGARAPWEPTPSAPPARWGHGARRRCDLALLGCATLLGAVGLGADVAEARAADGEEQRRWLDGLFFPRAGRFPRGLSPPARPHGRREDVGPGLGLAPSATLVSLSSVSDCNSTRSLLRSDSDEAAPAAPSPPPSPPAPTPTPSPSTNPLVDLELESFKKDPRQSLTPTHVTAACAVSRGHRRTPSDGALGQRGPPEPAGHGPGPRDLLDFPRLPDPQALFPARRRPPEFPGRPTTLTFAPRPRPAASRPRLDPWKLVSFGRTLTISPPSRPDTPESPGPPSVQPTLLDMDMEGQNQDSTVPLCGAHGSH
smiles,measurement,value
COC(=O)[C@@]1(O)C[C@H]2O[C@]1(C)n1c3ccccc3c3c4c(c5c6ccccc6n2c5c31)C(=O)NC4,IC50,45 nM
